Each structure is given as a SMILES string. Where “and” joins values, the source holds several entries; their conditions need not be identical. Equal values may be shown once. Read-outs that look alike come from different tables or passages of the source.

Data set [1] deals with T1, endogenous AR (Homo sapiens, UniProt P10275, T878A).
T1 construct: endogenous in cells; host or cells: LNCaP
T1 sequence (P10275 1-920 T878A): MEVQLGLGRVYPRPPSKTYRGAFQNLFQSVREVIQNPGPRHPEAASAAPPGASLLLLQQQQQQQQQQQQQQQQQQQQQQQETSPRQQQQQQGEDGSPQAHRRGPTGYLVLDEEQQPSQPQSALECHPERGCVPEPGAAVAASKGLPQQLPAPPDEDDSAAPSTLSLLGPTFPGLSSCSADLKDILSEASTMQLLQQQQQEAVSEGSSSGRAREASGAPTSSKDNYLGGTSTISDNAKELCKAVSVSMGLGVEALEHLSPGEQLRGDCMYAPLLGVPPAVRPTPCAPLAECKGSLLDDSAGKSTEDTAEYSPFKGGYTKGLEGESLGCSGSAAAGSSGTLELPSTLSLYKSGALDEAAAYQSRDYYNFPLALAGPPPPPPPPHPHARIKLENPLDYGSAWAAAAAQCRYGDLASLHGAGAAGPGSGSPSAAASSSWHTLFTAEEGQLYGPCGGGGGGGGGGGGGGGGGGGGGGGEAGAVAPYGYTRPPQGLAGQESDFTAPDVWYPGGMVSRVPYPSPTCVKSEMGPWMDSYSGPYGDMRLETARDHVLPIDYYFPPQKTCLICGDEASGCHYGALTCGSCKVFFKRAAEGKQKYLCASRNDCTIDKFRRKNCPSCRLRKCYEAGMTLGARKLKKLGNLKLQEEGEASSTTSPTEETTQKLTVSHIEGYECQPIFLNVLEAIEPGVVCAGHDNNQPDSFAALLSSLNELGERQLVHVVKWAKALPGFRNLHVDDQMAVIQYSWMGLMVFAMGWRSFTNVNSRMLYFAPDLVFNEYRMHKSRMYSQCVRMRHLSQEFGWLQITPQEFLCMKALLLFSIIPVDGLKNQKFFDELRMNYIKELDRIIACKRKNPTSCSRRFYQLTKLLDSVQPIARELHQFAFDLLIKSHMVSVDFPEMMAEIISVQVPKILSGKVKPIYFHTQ
Kind of data set: Steroid receptor specificity: PSA(6.1kb)-luciferase reporter in LNCaP cells. The conditions noted are these: 10 μM compound, 1 nM R1881, 48 h. The class given is cell-based. (Reporter assays use an easily measured gene product as a stand-in for the process of interest.)
From the text: LNCaP cells were transfected with the reporter plasmid PSA(6.1kb)-luciferase, PRE-luciferase, or GRE-luciferase and expression vector for progesterone receptor (PR)-β or glucocorticoid receptor (GR)-α in serum-free, phenol red-free medium using Lipofectin (Invitrogen).
A, LNCaP cells were transfected with PSA (6.1 kb)-luciferase, PRE-luciferase, or GRE-luciferase reporters and expression vector for PRβ or GRα.

Data set [2] can be described thus: Pharmacokinetics in CD-1 mice. The class given is in vivo. The conditions noted are these: single intravenous dose 50 mg/kg. The procedure:
Pharmacokinetics assays were performed by NAEJA Pharmaceutical Inc. in a total of 27 CD-1 mice, which received a single intravenous SINT1 dose of 50 mg/kg of body weight. Blood samples were collected during a period of 2.5 min to 8 h postdosing from three mice per time point. Plasma concentrations of SINT1 and pharmacokinetics parameters were determined.

In data set [3] the test system is LNCaP xenografts. Kind of data set: LNCaP CRPC xenografts in castrated mice. The class given is in vivo, NOD-SCID mice. The procedure:
Male NOD-SCID mice bearing subcutaneous LNCaP or LNCaP95 tumors were castrated when the tumor volume reached ∼100 mm^3. Seven days after castration, animals were injected intratumorally with 30 mg/kg of body weight SINT1 or a matching volume of vehicle (DMSO) every 3 days for a total of 15 days. Animal behavior and body weight were observed throughout the study period for signs of toxicity. Tumor volumes were calculated by the formula length × width × height × 0.5236. Tumors were excised 3 days after the last injection and prepared for immunohistochemistry or gene expression.
Xenograft sections were stained with hematoxylin and eosin and for Ki67 expression by Wax it Histology Inc. Cells that were positive for Ki67 were counted in sections from three xenografts for each treatment. For PSA and AR staining, dewaxed sections were microwaved for 10 min on full power in prewarmed Antigen Unmasking Solution (pH 6; Vector Laboratories, Inc.). The endogenous peroxidase activity was blocked by incubation in 3% H2O2 for 10 min followed by incubation in Clear Vision Histostaining Blocking Solution (UniCure Lab, Inc.) for 1 h at room temperature. Sections were incubated with AR-N20 (1:500 dilution) and PSA (1:5 dilution; overnight at 4 °C) primary antibodies. Samples were then incubated for 30 min at room temperature with secondary antibodies and mounted in Permount mounting medium (SP15–100, Fisher).

The mark [4] stands for this setting: mice sets 1-3 and mean ± S.D., mean.

Turning to `CCC(=O)NC(CC(C)C(Cl)(Cl)Cl)C(=O)N1C(=O)C=C(OC)C1CC(C)C(Cl)Cl` (centres unmarked) [SINT1, Sintokamide A], in data set [1], the “androgen-induced activity of endogenous AR (PSA (6.1 kb)-luciferase)” value is recorded as “significantly inhibited”. Besides, the Cmax in data set [2] (CD-1, mouse, plasma, iv, 50 mg/kg, plasma, mice sets 1-3 and mean ± S.D., read-out: Cmax) was 3990 ng/mL; in data set [2] (CD-1, mouse, plasma, iv, 50 mg/kg, read-out: Cmax in plasma) it was around 8 µM; in data set [2] (plasma, mice sets 1-3 and mean ± S.D.), 4440 ng/mL and 4030 ng/mL; in data set [2] (plasma, mice sets 1-3 and mean ± S.D., mean), 4150 ± 250 ng/mL. Further, the AUC(0-inf) in data set [2] (CD-1, mouse, plasma, iv, 50 mg/kg, mice sets 1-3 and mean ± S.D.) came out at 1840 ng·h/mL. In addition, the clearance in data set [2] (CD-1, mouse, plasma, iv, 50 mg/kg, mice sets 1-3 and mean ± S.D., read-out: Cl (plasma clearance) (converted)) is 366 mL/min/kg. The Vd in data set [2] (CD-1, mouse, plasma, iv, 50 mg/kg, mice sets 1-3 and mean ± S.D., read-out: Vd (volume of distribution)) was found to be 43.7 L/kg. For the same compound, the half-life in data set [2] (CD-1, mouse, plasma, iv, 50 mg/kg, mice sets 1-3 and mean ± S.D., read-out: t½ (elimination half-life) (converted)) is 1.38 h. For the same compound, the AUCinf in data set [2] (mice sets 1-3 and mean ± S.D.) is 2370 ng·h/mL and 1510 ng·h/mL; in data set [2] (setting [4]) it was 1900 ± 430 ng·h/mL. The “Cl (plasma clearance)” value in data set [2] (mice sets 1-3 and mean ± S.D.) is 284 mL/min/kg and 446.7 mL/min/kg; in data set [2] (setting [4]), 365.5 ± 81.3 mL/min/kg. Also, the “t½ (elimination half-life)” value in data set [2] (mice sets 1-3 and mean ± S.D.) was 1.10 h and 1.01 h; in data set [2] (setting [4]) it was 1.16 ± 0.19 h. Moreover, the “CRPC tumor overall growth” value in data set [3] (castrated mice, 30 mg/kg intratumorally every 3 days, five doses, n = 8, p = 0.0495) turned out to be 112 ± 13%. Further, the “animals achieving a serum PSA drop of ≥50%” value in data set [3] (day 15 vs day of first dose) is recorded as “six”. Besides, the “number of Ki67-positive cells in harvested xenografts” value in data set [3] (immunohistochemistry) is on record as “reduced”. In data set [3] (immunohistochemistry, vs vehicle control), the “levels of PSA in xenografts” value is on record as “marked decreases”. The “levels and cellular localization of AR protein in xenografts” value in data set [3] (immunohistochemistry, vs vehicle-treated) was “similar”.

In general, Cmax refers to the maximum level reached in the sampled fluid or tissue. A word on the AUC(0-inf): it is the area under the concentration-time curve extrapolated to infinity. A low value points to low exposure. The clearance is the volume of plasma or blood freed of the substance per unit of time. One may read the Vd as the apparent volume that relates the amount in the body to the concentration in plasma or blood. As usually defined, the half-life is how long it takes for the measured level to halve.

For the origin of these results see paper PMC5064002, “Sintokamide A Is a Novel Antagonist of Androgen Receptor That Uniquely Binds Activation Function-1 in Its Amino-terminal Domain” (The Journal of Biological Chemistry, 2016).
